We go through 15 compounds from paper PMC12779811, “Diverse phloroglucinols with hAChE inhibitory and anti-VRE effects from Rhodomyrtus tomentosa fruits” (Natural Products and Bioprospecting, 2026).

Usually MIC stands for the lowest concentration found to suppress growth. As a reminder, the IC50 is the concentration needed to halve the response being measured.

Structures are written as SMILES. Converted amounts (≈) assume the structure as drawn.

Test [1] has as its system vancomycin-resistant Enterococci (VRE). Briefly: Anti-VRE assay, standard broth microdilution method in 96-well plates. In kind it is cell-based. Conditions: Enterococcus, ampicillin positive control, tests performed three times, read-out: MIC against vancomycin-resistant Enterococci (VRE). How it is done:
As described in earlier studies, the antibacterial activities against vancomycin-resistant Enterococci (VRE) were achieved by a standard broth microdilution method in 96-well plates. Ampicillin (AMP) was a positive control, and all tests were performed three times.
(Broth dilution looks for growth in wells or tubes with falling amounts of substance.)

Test [2] addresses T1, human acetylcholinesterase (hAChE) (Homo sapiens, UniProt P22303). Briefly: biochemical. Conditions: triplicate; galantamine positive control; IC50 exceeding 40 μM considered inactive; read-out: hAChE inhibitory activity IC50 ± SD. How it is done: hAChE inhibition assays were performed according to a reported protocol, with galantamine as the positive control. All assays were performed in triplicate.

In test [3] the target is T1, human acetylcholinesterase (hAChE). Also noted: method as in PMID 36007662. The note with it: earlier report; cited from earlier work.

T1 sequence (P22303 32-614): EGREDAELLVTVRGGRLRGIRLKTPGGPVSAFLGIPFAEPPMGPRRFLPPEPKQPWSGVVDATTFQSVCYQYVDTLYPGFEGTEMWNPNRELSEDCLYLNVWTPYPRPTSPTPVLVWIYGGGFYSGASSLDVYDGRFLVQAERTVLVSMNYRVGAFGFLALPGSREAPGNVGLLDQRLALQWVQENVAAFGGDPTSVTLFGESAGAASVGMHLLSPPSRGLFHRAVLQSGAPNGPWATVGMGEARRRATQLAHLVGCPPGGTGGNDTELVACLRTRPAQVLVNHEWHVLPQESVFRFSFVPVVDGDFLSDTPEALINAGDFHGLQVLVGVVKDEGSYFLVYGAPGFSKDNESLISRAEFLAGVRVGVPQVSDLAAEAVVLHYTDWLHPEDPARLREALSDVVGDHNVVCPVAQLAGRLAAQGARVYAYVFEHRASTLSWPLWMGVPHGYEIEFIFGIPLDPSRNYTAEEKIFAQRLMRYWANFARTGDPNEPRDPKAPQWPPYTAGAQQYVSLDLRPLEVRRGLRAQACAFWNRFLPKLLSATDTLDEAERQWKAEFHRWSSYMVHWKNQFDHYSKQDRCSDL

For the compound `CC1(C)S[C@@H]2[C@H](NC(=O)[C@H](N)c3ccccc3)C(=O)N2[C@H]1C(=O)O` [ampicillin, reference compound], in test [1], the MIC came to 2 µg/mL (≈ 5.72 µM). Take `CC(C)C[C@H]1C2=C(O[C@]3(C)[C@H]1C[C@]1(C(C)C)C[C@@H]13)C(C)(C)C(=O)C(C)(C)C2=O` [phloroglucinol 1, rhodotomentodione F]: the IC50 in test [2] is above 40 µM.

Consider `CC1(C)C(=O)C2=C(OC3(O)C(=C2)C(=O)C(C)(C)C(=O)C3(C)C)C(C)(C)C1=O` (stereo not shown) [phloroglucinol 2, rhodotomentodimer H], for which the half-maximal inhibitory concentration (IC50) in test [2] was above 40 µM. Regarding `CCC(C)C1C2=C(Oc3c(C(=O)C(C)C)c(O)cc(O)c31)C(C)(C)C(=O)C(C)(C)C2=O` (stereo not shown) [phloroglucinol 3, rhodotomentodimer I], the IC50 in test [2] came out at 2.89 ± 0.3 µM. Same read-out and setting: the value for `CCC(C)C(=O)c1c(O)cc(O)c2c1OC1=C(C(=O)C(C)(C)C(=O)C1(C)C)C2C(C)C` (stereo not shown) [phloroglucinol 4, rhodotomentodimer J] was 2.39 ± 0.25 µM; that for `CCC(C)C(=O)c1c(O)cc(O)c2c1OC1=C(C(=O)C(C)(C)C(=O)C1(C)C)C2C(C)C` (stereo not shown) [phloroglucinol 5, rhodotomentodimer K] was 2.46 ± 0.33 µM. Still for that read-out and setting: with `CCC(C)C(=O)c1c(O)cc(O)c2c1OC1=C(C(=O)C(C)(C)C(=O)C1(C)C)C2C(C)CC` (stereo not shown) [phloroglucinol 6, rhodotomentodimer L] the figure was 2.62 ± 0.21 µM; with `CCC(C)C(=O)c1c(O)cc(O)c2c1OC1=C(C(=O)C(C)(C)C(=O)C1(C)C)C2C(C)CC` (stereo not shown) [phloroglucinol 7, rhodotomentodimer M], 2.41 ± 0.22 µM. The same measure, in the same setting: the value for `CCC(C)C(=O)c1c(O)cc2c(c1O)C(C(C)CC)C1=C(O2)C(C)(C)C(=O)C(C)(C)C1=O` (stereo not shown) [phloroglucinol 8, rhodotomentodimer N] was 3.35 ± 0.41 µM; that for `CCC(C)C(=O)c1c(O)cc2c(c1O)C(C(C)C)C1=C(O2)C(C)(C)C(=O)C(C)(C)C1=O` (stereo not shown) [phloroglucinol 9, myrciarone B] was 2.86 ± 0.3 µM. `CCC(C)C(=O)c1c(O)cc2c(c1O)C(CC(C)C)C1=C(O2)C(C)(C)C(=O)C(C)(C)C1=O` (stereo not shown) [phloroglucinol 10, rhodotomentodimer D]: the “inhibitory activity against human acetylcholinesterase (hAChE), in words” value in test [3] was “exhibited inhibitory activity”. As to `CC(C)C(=O)c1c(O)cc2c(c1O)C(C(C)C)C1=C(O2)C(C)(C)C(=O)C(C)(C)C1=O` (stereo not shown) [phloroglucinol 11, isomyrtucommulone B], in test [2], the IC50 came to 1.36 ± 0.16 µM. For the same compound, the MIC in test [1] came to 1 µg/mL (≈ 2.41 µM).

As for `CC(C)CC(=O)c1c(O)cc2c(c1O)C(CC(C)C)C1=C(O2)C(C)(C)C(=O)C(C)(C)C1=O` (stereo not shown) [phloroglucinol 12, rhodomyrtone], the IC50 in test [2] was determined as 1.52 ± 0.14 µM. For the same compound, in test [1], the MIC was determined as 1 µg/mL (≈ 2.26 µM). In the same order, the values of `CC(C)C(=O)c1c(O)cc(O)c2c1OC1=C(C(=O)C(C)(C)C(=O)C1(C)C)C2C(C)C` (stereo not shown) [phloroglucinol 13, myrtucommulone B] are 1.04 ± 0.03 µM and above 32 µg/mL.

Consider `CC(C)CC(=O)c1c(O)cc(O)c2c1OC1=C(C(=O)C(C)(C)C(=O)C1(C)C)C2C(C)C` (stereo not shown) [phloroglucinol 14, callistenone A], for which the IC50 in test [2] came to 1.23 ± 0.11 µM. For the same compound, the MIC in test [1] is above 32 µg/mL.
